Test results reported in patent US8481576B2 (Abbott GmbH & Co. KG, priority 2004, dated 2013).
Where a name gives a salt, the structure may show the parent alone.

biological target: T1, h5-HT5A receptor (Homo sapiens, UniProt P47898); test: [3H]5-CT binding assay h5-HT5A; details: membranes from HEK293 cells expressing h5-HT5A, 2.5 nM [3H]5-CT; read-out: Binding affinity 5-HT5A (Ki)
T1 construct: expressed in transfected cells; host or cells: HEK293
Method: 1. [^3H]5-CT binding assay h5-HT5A
Membranes from HEK293-cells, which permanently express the h5-HT5A receptor gene, were incubated in 100 mM Tris-HCl-buffer (pH 7.7), containing 1 mM EDTA in the presence of 2.5 nM [^3H]5-CT (600 μl total volume). The total binding is defined as the binding which is observed when the membranes are incubated alone in the presence of the radioligand. The inhibition induced by the compound is determined by incubation of cell membranes in the presence of the radioligand, and of different concentrations of the compound of interest. Unspecific binding is defined by the binding of [^3H]5-CT, which is obtained by incubation of the membranes as for the total binding but in the presence of 10 μM methiothepine. Following an incubation of 75 minutes at 30° C. the membrane suspension is filtered through GF/B-filters, wrapped in 0.03% PEI, wherein a Skatron® harvest system is used. The radioactivity retained in the filter is quantified by liquid scintillation counting.
In both assays, different concentrations of the test substances are used, and the Ki or the IC50 values are determined.

T1 sequence (P47898 whole entry): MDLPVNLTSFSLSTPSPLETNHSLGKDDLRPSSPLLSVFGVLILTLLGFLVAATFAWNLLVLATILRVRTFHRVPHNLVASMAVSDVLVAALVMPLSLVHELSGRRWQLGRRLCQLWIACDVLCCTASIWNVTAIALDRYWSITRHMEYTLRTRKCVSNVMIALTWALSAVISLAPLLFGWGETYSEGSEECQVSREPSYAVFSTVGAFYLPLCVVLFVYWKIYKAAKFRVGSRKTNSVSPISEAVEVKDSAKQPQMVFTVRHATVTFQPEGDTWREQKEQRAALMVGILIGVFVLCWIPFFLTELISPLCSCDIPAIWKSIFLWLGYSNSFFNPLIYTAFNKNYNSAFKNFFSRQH

Question: `COc1ccccc1CNC(=N)Nc1nc(N2CCCCC2)cs1` [Example 166, 1-[2-({imino[(2-methoxybenzyl)amino]methyl}amino)-1,3-thiazole-4(5H)-ylidene]piperidinium chloride] was tested. Which Ki did it give?
Answer: > 500 nM

Question: Which Ki does the source give for `COc1cccc(Cl)c1CNC(=N)Nc1nc(-c2ccccc2)cs1` [Example 132, N-(2-chloro-6-methoxybenzyl)-N′-(4-phenyl-1,3-thiazole-2-yl)guanidine] here?
Answer: < 50 nM

Question: With `COc1ccccc1CNC(=N)Nc1ncc[nH]1` [Example 183, N-1H-imidazole-2-yl-N′-(2-methoxybenzyl)guanidine acetate] as the compound, how does the Ki read?
Answer: 50 to 500 nM

Question: For `CCOc1ccccc1CNC(=N)Nc1nccs1` [Example 8, N-(2-ethoxybenzyl)-N′-1,3-thiazole-2-ylguanidine hydrochloride], which Ki is on record?
Answer: < 50 nM

Question: Which Ki does the source give for `CCCCS(=O)(=O)NCc1csc(NC(=N)NCc2c(OC)cccc2OC)n1` [Example 157, N-[(2-{[[(2,6-dimethoxybenzyl)amino](imino)methyl]amino}-1,3-thiazole-4-yl)methyl]butane-1-sulfonamide] here?
Answer: < 50 nM

Question: For `COc1cccc(OC)c1CNC(=N)Nc1nc(-c2ccc3c(c2)OCO3)cs1` [Example 69, N-[4-(1,3-benzodioxol-5-yl)-1,3-thiazole-2-yl]-N′-(2,6-dimethoxybenzyl)guanidine hydrobromide], which Ki is on record?
Answer: < 50 nM

Question: With `COc1cccc(OC)c1CNC(=N)Nc1nc(-c2ccccc2)c[nH]1` [Example 187, N-(2,6-dimethoxybenzyl)-N′-(4-phenyl-1H-imidazole-2-yl)guanidine acetate] as the compound, how does the Ki read?
Answer: < 50 nM

Question: With `N=C(NCc1ccccc1Cl)Nc1nccs1` [Example 7, N-(2-chlorobenzyl)-N′-1,3-thiazole-2-ylguanidine hydrochloride] as the compound, how does the Ki read?
Answer: > 500 nM

Question: `COc1cccc(OC)c1CNC(=N)Nc1n[nH]cc1-c1ccccc1` [Example 218, N-(2,6-dimethoxybenzyl)-N′-(4-phenyl-1H-pyrazole-3-yl)guanidine] was tested. Which Ki did it give?
Answer: > 500 nM

Question: How did the Ki turn out when `COc1cccc(OC)c1CNC(=N)Nc1nc(C)co1` [Example 190, N-(2,6-dimethoxybenzyl)-N′-(4-methyl-1,3-oxazole-2-yl)guanidine acetate] was run?
Answer: < 50 nM

Question: `COc1cccc(OC)c1CNC(=N)Nc1nc(C(=O)NC(C)C)cs1` [Example 196, 2-{[[(2,6-dimethoxybenzyl)amino](imino)methyl]amino}-N-isopropyl-1,3-thiazole-4-carboxamide] was tested. Which Ki did it give?
Answer: < 50 nM

Question: Which Ki does the source give for `COc1cccc(OC)c1CNC(=N)Nc1nc(-c2ccc3c(c2)CCO3)cs1` [Example 115, N-[4-(2,3-dihydro-1-benzofuran-5-yl)-1,3-thiazole-2-yl]-N′-(2,6-dimethoxybenzyl)guanidine] here?
Answer: < 50 nM

Question: How did the Ki turn out when `COc1ccccc1CNC(=N)Nc1nc(-c2ccccc2)c[nH]1` [Example 188, N-(2-methoxybenzyl)-N′-(4-phenyl-1H-imidazole-2-yl)guanidine acetate] was run?
Answer: < 50 nM

Question: Which Ki does the source give for “N-[4-(2-{[[(2,6-dimethoxybenzyl)amino](imino)methyl]amino}-1,3-thiazole-4-yl)phenyl]acetamide acetate [Example 79]” here?
Answer: < 50 nM

Question: `COc1cccc(Cl)c1CNC(=N)Nc1nccs1` [Example 6, N-(2-chloro-6-methoxybenzyl)-N′-1,3-thiazole-2-ylguanidine hydrochloride] was tested. Which Ki did it give?
Answer: < 50 nM

Question: Which Ki does the source give for `COc1ccc(C(F)(F)F)cc1CNC(=N)Nc1nc(-c2ccccc2)cs1` [Example 221, N-[2-methoxy-5-(trifluoromethyl)benzyl]-N′-(4-phenyl-1,3-thiazole-2-yl)guanidine] here?
Answer: > 500 nM

Question: For `COc1cccc(OC)c1CNC(=N)Nc1nc(-c2cccc(F)c2)cs1` [Example 73, N-(2,6-dimethoxybenzyl)-N′-[4-(3-fluorophenyl)-1,3-thiazole-2-yl]guanidine hydrobromide], which Ki is on record?
Answer: < 50 nM

Question: How did the Ki turn out when `COc1cccc(OC)c1CNC(=N)Nc1nc(C23CC4CC(CC(C4)C2)C3)cs1` [Example 85, N-[4-(1-adamantyl)-1,3-thiazole-2-yl]-N′-(2,6-dimethoxybenzyl)guanidine hydrobromide] was run?
Answer: < 50 nM

Question: With `COc1cccc(Cl)c1CNC(=N)Nc1nc(-c2ncc(F)cc2F)cs1` [Example 152, N-(2-chloro-6-methoxybenzyl)-N′-[4-(3,5-difluoropyridine-2-yl)-1,3-thiazole-2-yl]guanidine] as the compound, how does the Ki read?
Answer: < 50 nM

Question: How did the Ki turn out when `COc1cccc(OC)c1CNC(=N)Nc1nc(-c2ccc(F)cc2O)cs1` [Example 142, N-(2,6-dimethoxybenzyl)-N′-[4-(4-fluoro-2-hydroxyphenyl)-1,3-thiazole-2-yl]guanidine] was run?
Answer: < 50 nM

Question: `COc1cccc(OC)c1CNC(=N)Nc1ncc(-c2ccc(F)cc2)s1` [Example 128, N-(2,6-dimethoxybenzyl)-N′-[5-(4-fluorophenyl)-1,3-thiazole-2-yl]guanidine] was tested. Which Ki did it give?
Answer: < 50 nM

Question: With `COc1cccc(OC)c1CNC(=N)Nc1nc2c(s1)CN(C(C)=O)CC2` [Example 224, N-(5-acetyl-4,5,6,7-tetrahydro[1,3]thiazolo[5,4-c]pyridine-2-yl)-N′-(2,6-dimethoxybenzyl)guanidine] as the compound, how does the Ki read?
Answer: < 50 nM

Question: With `COc1cccc(OC)c1CNC(=N)Nc1nc(-c2ccc(F)cc2)c(C)s1` [Example 118, N-(2,6-dimethoxybenzyl)-N′-[4-(4-fluorophenyl)-5-methyl-1,3-thiazole-2-yl]guanidine] as the compound, how does the Ki read?
Answer: < 50 nM

Question: With `COc1cccc(OC)c1CNC(=N)Nc1nc(-c2cc(-c3ccccc3)no2)cs1` [Example 83, N-(2,6-dimethoxybenzyl)-N′-[4-(3-phenylisoxazole-5-yl)-1,3-thiazole-2-yl]guanidine hydrobromide] as the compound, how does the Ki read?
Answer: < 50 nM

Question: `COc1cccc(OC)c1CNC(=N)Nc1nc2c(s1)CCc1ccccc1-2` [Example 127, N-(4,5-dihydronaphtho[1,2-d][1,3]thiazole-2-yl)-N′-(2,6-dimethoxybenzyl)guanidine] was tested. Which Ki did it give?
Answer: < 50 nM

Question: With `COc1cccc(F)c1CNC(=N)Nc1nc(-c2ccc(F)cc2)cs1` [Example 141, N-(2-fluoro-6-methoxybenzyl)-N′-[4-(4-fluorophenyl)-1,3-thiazole-2-yl]guanidine] as the compound, how does the Ki read?
Answer: 50 to 500 nM

Question: With `COc1cccc(F)c1CNC(=N)Nc1nccs1` [Example 9, N-(2-fluoro-6-methoxybenzyl)-N′-1,3-thiazole-2-ylguanidine] as the compound, how does the Ki read?
Answer: < 50 nM

Question: For `COc1cccc(OC)c1CNC(=N)Nc1nc(C(C)(C)C)cs1` [Example 36, N-(4-tert-butyl-1,3-thiazole-2-yl)-N′-(2,6-dimethoxybenzyl)guanidine], which Ki is on record?
Answer: < 50 nM

Question: `COc1cccc(OC)c1CNC(=N)Nc1nc(-c2ccc(-c3ccccc3)cc2)cs1` [Example 74, N-(4-biphenyl-4-yl-1,3-thiazole-2-yl)-N′-(2,6-dimethoxybenzyl)guanidine hydrobromide] was tested. Which Ki did it give?
Answer: < 50 nM

Question: How did the Ki turn out when `COc1cccc(OC)c1CNC(=N)Nc1nc(-c2ccccc2)co1` [Example 199, N-(2,6-dimethoxybenzyl)-N′-(4-phenyl-1,3-oxazole-2-yl)guanidine] was run?
Answer: < 50 nM

Question: For `COc1cccc(OC)c1CNC(=N)Nc1nc2ccccc2s1` [Example 27, N-1,3-benzothiazole-2-yl-N′-(2,6-dimethoxybenzypguanidine (2E)-But-2-endioate], which Ki is on record?
Answer: < 50 nM

Question: With `COc1ccccc1CNC(=N)Nc1nc(-c2ccccc2)cs1` [Example 31, N-(2-methoxybenzyl)-N′-(4-phenyl-1,3-thiazole-2-yl)guanidine] as the compound, how does the Ki read?
Answer: 50 to 500 nM

Question: For `N=C(NCCOc1ccccc1Cl)Nc1nccs1` [Example 29, N-[2-(2-chlorophenoxy)ethyl]-N′-1,3-thiazole-2-ylguanidine (2E)-But-2-endioate], which Ki is on record?
Answer: 50 to 500 nM
